For the experiment, the system named is HL60 cells. Kind of experiment: Anti-proliferation on HL60 cells (CellTiter-Glo, 3 days). The format is cell-based. To be noted: Homo sapiens, HL-60, 72 h, 3 days incubation, CTG luminescence, IC50 by XLfit, read-out: HL60 cells Proliferation inhibitory activity. On the procedure: HL60 cells (Cell Bank of Chinese Academy of Sciences) in the logarithmic growth phase were counted and plated evenly in a 96-well transparent bottom white plate at 20000 cells per well and 100 μL per well.
A certain amount of the compound of the present invention was weighed and diluted with DMSO to a 10 mM stock solution. The culture medium RPMI-1640 (meilunbio, MA0215) corresponding to the cells were taken, and the compound was diluted to the concentration required by the test, shaken gently and mixed evenly. 50 μL of the gradient dilution of the diluted compound was added to each well of the plated cells, and 50 μL of 0.1% DMSO was added to the control group. The plate was shaken gently, mixed evenly and incubated in a cell culture incubator for 3 days.
• 3.1 The CellTiter-Glo™ (CTG) (purchased from Promega, Cat. No. G9242) reagent was taken in advance from the −20° C. refrigerator and equilibrated to room temperature in the dark. Cell Titer-Glo buffer and Cell Titer-Glo substrate were mixed at a ratio of 1:1 to prepare a CTG detection reagent. • 3.2 The 96-well plate was taken out and inspected under a microscope for growth. • 3.3 The bottom of the 96-well plate was tagged with white paper, and then the plate was wrapped with tin foil paper, shaken at 37° C. at 300 r for 10 min and mixed evenly. • 3.4. 50 μL of CTG detection reagent was added to each well, Luminescence signal was detected using a microplate reader Biotek Synergy Hi, and the inhibition rate was calculated. IC50 values of the compounds were calculated by XLfit 5.5.0 software to evaluate the proliferation inhibitory activity on HL60 cells.
Background: ATP-based viability assays read luminescence as a measure of living cells.

On to `O=C1CCC(N2Cc3cc(NC(=O)CC4CCN(C(=O)NCc5cccc6ccccc56)CC4)ccc3C2=O)C(=O)N1` (centres unmarked) [Compound A1], for which the IC50 came out at 190 nM.

Take `O=C1CCC(N2Cc3cc(C(=O)NCC4CCN(C(=O)NCCn5c6ccccc6c6cccnc65)CC4)ccc3C2=O)C(=O)N1` (centres unmarked) [Compound A2]: the IC50 came to 58 nM.

Consider `O=C1CCC(N2Cc3cc(NC(=O)CC4CCN(CC(=O)N5CCCc6ccccc65)CC4)ccc3C2=O)C(=O)N1` (centres unmarked) [Compound A3], for which the IC50 was 7.9 nM.

Turning to `O=C(CN1CCC(CC(=O)Nc2ccc3c(c2)CN(C2CCC(=O)NC2=O)C3=O)CC1)NCc1cccc2ccccc12` (centres unmarked) [Compound A5], the IC50 was 10 nM.

`O=C(CN1CCC(CNC(=O)c2ccc3c(c2)CN(C2CCC(=O)NC2=O)C3=O)CC1)NCc1cccc2ccccc12` (centres unmarked) [Compound A6]: the IC50 was 192 nM.

Take `O=C(CN1CCC(CNC(=O)c2ccc3c(c2)CN(C2CCC(=O)NC2=O)C3=O)CC1)NCCn1c2ccccc2c2cccnc21` (centres unmarked) [Compound A7]: the IC50 amounted to 94 nM.

As to `O=C(CN1CCC(CC(=O)Nc2ccc3c(c2)CN(C2CCC(=O)NC2=O)C3=O)CC1)NCCn1c2ccccc2c2cccnc21` (centres unmarked) [Compound A8], the IC50 was 14 nM.

On to `O=C1CCC(N2Cc3cc(NC(=O)CC4CCN(CC(=O)Nc5cccc6ccccc56)CC4)ccc3C2=O)C(=O)N1` (centres unmarked) [Compound A9], for which the IC50 amounted to 6 nM.

Consider `O=C(CN1CCC(CC(=O)Nc2ccc3c(c2)CN(C2CCC(=O)NC2=O)C3=O)CC1)NCCc1cccc2ccccc12` (centres unmarked) [Compound A10], for which the IC50 came to 7.4 nM.

Take `O=C1CCC(N2Cc3cc(NC(=O)CC4CCN(C(=O)Cn5c6ccccc6c6cccnc65)CC4)ccc3C2=O)C(=O)N1` (centres unmarked) [Compound A11]: the IC50 was determined as 39 nM.

In the case of `O=C1CCC(N2Cc3cc(C(=O)NCC4CCN(c5nccc(-c6cccc7ccccc67)n5)CC4)ccc3C2=O)C(=O)N1` (centres unmarked) [Compound A12], the IC50 came out at 4.5 nM.

For the molecule `O=C1CCC(N2Cc3cc(NC(=O)CC4CCN(c5nccc(-c6cccc7ccccc67)n5)CC4)ccc3C2=O)C(=O)N1` (centres unmarked) [Compound A13], the IC50 came to 6.4 nM.

With `O=C1CCC(N2Cc3cc(C(=O)NCC4CCN(c5cccc(-c6cccc7ccccc67)n5)CC4)ccc3C2=O)C(=O)N1` (centres unmarked) [Compound A14], the IC50 was found to be 0.9 nM.

In the case of `O=C1CCC(N2Cc3cc(NC(=O)CC4CCN(c5cccc(-c6cccc7ccccc67)n5)CC4)ccc3C2=O)C(=O)N1` (centres unmarked) [Compound A15], the IC50 is 1 nM.

`O=C1CCC(N2Cc3cc(C(=O)NCC4CCN(c5cc(-c6cccc7ccccc67)ccn5)CC4)ccc3C2=O)C(=O)N1` (centres unmarked) [Compound A16]: the IC50 is 1.5 nM.

For `O=C1CCC(N2Cc3cc(C(=O)NCC4CCN(c5cncc(-c6cccc7ccccc67)c5)CC4)ccc3C2=O)C(=O)N1` (centres unmarked) [Compound A18], the IC50 stood at 5.5 nM.

Turning to `O=C1CCC(N2Cc3cc(C(=O)NCC4CCN(c5ccnc(-c6cccc7ccccc67)n5)CC4)ccc3C2=O)C(=O)N1` (centres unmarked) [Compound A20], the IC50 amounted to 21 nM.

Turning to `O=C1CCC(N2Cc3cc(C(=O)NCC4CCN(c5cccc(-c6cccc7ccccc67)c5)CC4)ccc3C2=O)C(=O)N1` (centres unmarked) [Compound A21], the IC50 stood at 2.9 nM.

Consider `O=C1CCC(N2Cc3cc(NC(=O)CC4CCN(c5cccc(-c6cccc7ccccc67)c5)CC4)ccc3C2=O)C(=O)N1` (centres unmarked) [Compound A22], for which the IC50 worked out at 4 nM.

`O=C1CCC(N2Cc3cc(C(=O)NCC4CCN(c5ncc(-c6cccc7ccccc67)s5)CC4)ccc3C2=O)C(=O)N1` (centres unmarked) [Compound A23]: the IC50 is 0.2 nM.

As to `O=C1CCC(N2Cc3cc(NC(=O)CC4CCN(c5cnc(-c6cccc7ccccc67)s5)CC4)ccc3C2=O)C(=O)N1` (centres unmarked) [Compound A25], the IC50 is 0.3 nM.

In the case of `O=C1CCC(N2Cc3cc(NC(=O)CC4CCN(c5ncc(-c6cccc7cccc(F)c67)s5)CC4)ccc3C2=O)C(=O)N1` (centres unmarked) [Compound A26], the IC50 is under 0.2 nM.

In the case of `O=C1CCC(N2Cc3cc(C(=O)NCC4CCN(c5ncc(-c6cccc7ccccc67)o5)CC4)ccc3C2=O)C(=O)N1` (centres unmarked) [Compound A27], the IC50 was 3.7 nM.

Regarding `O=C1CCC(N2Cc3cc(NC(=O)CC4CCN(c5cnc(-c6cccc7ccccc67)cn5)CC4)ccc3C2=O)C(=O)N1` (centres unmarked) [Compound A31], the IC50 is under 0.2 nM.

Turning to `O=C1CCC(N2Cc3cc(NC(=O)CC4CCN(c5ccc(-c6cccc7ccccc67)nn5)CC4)ccc3C2=O)C(=O)N1` (centres unmarked) [Compound A32], the IC50 turned out to be 12 nM.

Consider `O=C1CCC(N2Cc3cc(NC(=O)CC4CCN(c5cnc(-c6cccc7ccccc67)nc5)CC4)ccc3C2=O)C(=O)N1` (centres unmarked) [Compound A33], for which the IC50 was determined as 0.3 nM.

Turning to `O=C1CCC(N2Cc3cc(C(=O)NCC4CCN(c5ccc(-c6cccc7ccccc67)cn5)CC4)ccc3C2=O)C(=O)N1` (centres unmarked) [Compound A34], the IC50 is under 0.2 nM.

As to `O=C1CCC(N2Cc3cc(NC(=O)CC4CCN(c5ccc(-c6cccc7ccccc67)cn5)CC4)ccc3C2=O)C(=O)N1` (centres unmarked) [Compound A35], the IC50 is under 0.2 nM.

As for `O=C1CCC(N2Cc3cc(C(=O)NCC4CCN(c5ccc(-c6cccc7ccccc67)nc5)CC4)ccc3C2=O)C(=O)N1` (centres unmarked) [Compound A36], the IC50 amounted to 0.3 nM.

With `O=C1CCC(N2Cc3cc(C(=O)NCC4CCN(c5ncc(-c6ccc7ccccc7c6)cn5)CC4)ccc3C2=O)C(=O)N1` (centres unmarked) [Compound A39], the IC50 was 2.6 nM.

As for `O=C1CCC(N2Cc3cc(C(=O)NCC4CCN(c5ccc(-c6ccc7ccccc7c6)cn5)CC4)ccc3C2=O)C(=O)N1` (centres unmarked) [Compound A40], the IC50 came to 4.3 nM.

For `O=C1CCC(N2Cc3cc(NC(=O)CC4CCN(c5ccc(-c6ccc7ccccc7c6)cn5)CC4)ccc3C2=O)C(=O)N1` (centres unmarked) [Compound A41], the IC50 is 0.2 nM.

Consider `O=C1CCC(N2Cc3cc(C(=O)NCC4CCN(c5ccc(-c6cccc7cccnc67)cn5)CC4)ccc3C2=O)C(=O)N1` (centres unmarked) [Compound A42], for which the IC50 is 0.2 nM.

Take `O=C1CCC(N2Cc3cc(C(=O)NCC4CCN(c5ccc(-c6cccc7cccnc67)nc5)CC4)ccc3C2=O)C(=O)N1` (centres unmarked) [Compound A44]: the IC50 came out at 5 nM.

With `O=C1CCC(N2Cc3cc(C(=O)NCC4CCN(c5ccc(-c6nccc7ccccc67)cn5)CC4)ccc3C2=O)C(=O)N1` (centres unmarked) [Compound A45], the IC50 is under 0.2 nM.

Turning to `O=C1CCC(N2Cc3cc(NC(=O)CC4CCN(c5ccc(-c6nccc7ccccc67)cn5)CC4)ccc3C2=O)C(=O)N1` (centres unmarked) [Compound A46], the IC50 is under 0.2 nM.

In the case of `O=C1CCC(N2Cc3cc(NC(=O)CC4CCN(c5ncc(Br)cn5)CC4)ccc3C2=O)C(=O)N1` (centres unmarked) [Compound A48], the IC50 turned out to be 4.1 nM.

`O=C1CCC(N2Cc3cc(NC(=O)CC4CCN(c5ncc(C6CC6)cn5)CC4)ccc3C2=O)C(=O)N1` (centres unmarked) [Compound A49]: the IC50 was 1.5 nM.

As for `CC(C)c1cnc(N2CCC(CC(=O)Nc3ccc4c(c3)CN(C3CCC(=O)NC3=O)C4=O)CC2)nc1` (centres unmarked) [Compound A50], the IC50 was 0.6 nM.

Regarding `O=C1CCC(N2Cc3cc(NC(=O)CC4CCN(c5ncc(-c6ccccc6)cn5)CC4)ccc3C2=O)C(=O)N1` (centres unmarked) [Compound A51], the IC50 is under 0.2 nM.

For `O=C1CCC(N2Cc3cc(C(=O)NCC4CCN(c5ncc(-c6cccc(Cl)c6)cn5)CC4)ccc3C2=O)C(=O)N1` (centres unmarked) [Compound A52], the IC50 amounted to 1.4 nM.

Regarding `O=C1CCC(N2Cc3cc(NC(=O)CC4CCN(c5ncc(-c6ccccc6Cl)cn5)CC4)ccc3C2=O)C(=O)N1` (centres unmarked) [Compound A54], the IC50 is under 0.2 nM.

Regarding `O=C1CCC(N2Cc3cc(NC(=O)CC4CCN(c5ncc(-c6ccc(Cl)cc6)cn5)CC4)ccc3C2=O)C(=O)N1` (centres unmarked) [Compound A55], the IC50 was under 0.2 nM.

`O=C1CCC(N2Cc3cc(NC(=O)CC4CCN(c5ccc(-c6cccc(Cl)c6)cn5)CC4)ccc3C2=O)C(=O)N1` (centres unmarked) [Compound A56]: the IC50 was under 0.2 nM.

In the case of `O=C1CCC(N2Cc3cc(NC(=O)CC4CCN(c5ccc(-c6cccc(Cl)c6)nc5)CC4)ccc3C2=O)C(=O)N1` (centres unmarked) [Compound A57], the IC50 was under 0.2 nM.

As to `O=C1CCC(N2Cc3cc(NC(=O)CC4CCN(c5ccc(-c6cccc(C(F)(F)F)c6)cn5)CC4)ccc3C2=O)C(=O)N1` (centres unmarked) [Compound A58], the IC50 is under 0.2 nM.

For `O=C1CCC(N2Cc3cc(NC(=O)CC4CCN(c5ncc(-c6ccccn6)cn5)CC4)ccc3C2=O)C(=O)N1` (centres unmarked) [Compound A59], the IC50 stood at 0.7 nM.

Turning to `O=C1CCC(N2Cc3cc(NC(=O)CC4CCN(c5ncc(-c6ccncc6)cn5)CC4)ccc3C2=O)C(=O)N1` (centres unmarked) [Compound A60], the IC50 was 60 nM.

For `Cc1cc(-c2cccc(Cl)c2)cnc1N1CCC(CNCc2ccc3c(c2)CN(C2CCC(=O)NC2=O)C3=O)CC1` (centres unmarked) [Compound A76], the IC50 is under 0.2 nM.

With `O=C1CCC(N2Cc3cc(CNCC4CCN(c5ncc(-c6cccc(Cl)c6)cc5[N+](=O)[O-])CC4)ccc3C2=O)C(=O)N1` (centres unmarked) [Compound A78], the IC50 came out at 3 nM.

Take `CN(C)c1cc(-c2cccc(Cl)c2)cnc1N1CCC(CNCc2ccc3c(c2)CN(C2CCC(=O)NC2=O)C3=O)CC1` (centres unmarked) [Compound A79]: the IC50 was under 0.2 nM.

Consider `O=C1CCC(N2Cc3cc(CNCC4(F)CCN(c5ncc(-c6cccc(Cl)c6)cc5F)CC4)ccc3C2=O)C(=O)N1` (centres unmarked) [Compound A84], for which the IC50 is 2.6 nM.

As to `O=C1CCC(N2Cc3cc(CNCC4CCN(c5ncc(-c6cccc(Cl)c6)cc5F)CC4(F)F)ccc3C2=O)C(=O)N1` (centres unmarked) [Compound A88], the IC50 stood at 0.8 nM.

The record behind these values is US20250059162A1, “MULTI-PROTEIN DEGRADATION AGENT HAVING IMIDE SKELETON” (SUZHOU KINTOR PHARMACEUTICALS, INC., priority 2021, published 2025).
